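A five-concentration, 48-hour dose response in 96-well plates underlies each endpoint, interpolated linearly between surrounding concentrations. At the TGI there is no net growth.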
Assays:
Assay in all cases: NCI tumour cell line growth inhibition, 48 h
[1] = system: IGROV1 ovarian
[2] = system: HOP-18 NSCLC
[3] = system: KM12 colon
[4] = system: OVCAR-3 ovarian
[5] = system: RXF-631 renal
[6] = system: HCC-2998 colon
[7] = system: SK-OV-3 ovarian
[8] = system: LOX IMVI melanoma
[9] = system: M14 melanoma
[10] = system: U251 CNS
[11] = system: TK-10 renal
[12] = system: ACHN renal
[13] = system: DMS 114 small cell lung
[14] = system: SNB-19 CNS
[15] = system: SK-MEL-2 melanoma
[16] = system: OVCAR-4 ovarian
[17] = system: HOP-92 NSCLC
[18] = system: RPMI-8226 leukemia
[19] = system: KM20L2 colon
[20] = system: MOLT-4 leukemia
[21] = system: SF-539 CNS
[22] = system: UO-31 renal
[23] = system: HT29 colon
[24] = system: SN12C renal
[25] = system: OVCAR-8 ovarian
[26] = system: SNB-78 CNS
[27] = system: UACC-62 melanoma
[28] = system: DLD-1 colon
[29] = system: A549 NSCLC
[30] = system: 786-0 renal
[31] = system: NCI-H522 lung
[32] = system: SF-295 CNS
[33] = system: SNB-75 CNS
[34] = system: K-562 leukemia
[35] = system: HCT-15 colon
[36] = system: CCRF-CEM leukemia
[37] = system: DMS 273 small cell lung
[38] = system: EKVX NSCLC
[39] = system: NCI-H226 lung
[40] = system: HCT-116 colon
[41] = system: SW-620 colon
[42] = system: HL-60(TB) leukemia
[43] = system: COLO 205 colon
[44] = system: M19-MEL melanoma
[45] = system: SK-MEL-28 melanoma
[46] = system: NCI-H23 lung
[47] = system: LXFL 529 NSCLC
[48] = system: SK-MEL-5 melanoma
[49] = system: OVCAR-5 ovarian
[50] = system: UACC-257 melanoma
[51] = system: CAKI-1 renal
[52] = system: MALME-3M melanoma
[53] = system: NCI-H460 lung
[54] = system: SR leukemia
[55] = system: SF-268 CNS
[56] = system: HOP-62 NSCLC
[57] = system: RXF 393 renal
[58] = system: A498 renal

SMILES: c1ccc(-c2csc3ncn4cnnc4c23)cc1
- TGI [1]: > 100 µM
- TGI [2]: > 100 µM
- TGI [3]: > 100 µM
- TGI [4]: > 100 µM
- TGI [5]: > 100 µM
- TGI [6]: > 100 µM
- TGI [7]: > 100 µM
- TGI [8]: > 100 µM
- TGI [9]: > 100 µM
- TGI [10]: > 100 µM
- TGI [11]: > 100 µM
- TGI [12]: > 100 µM
- TGI [13]: > 100 µM
- TGI [14]: > 100 µM
- TGI [15]: > 100 µM
- TGI [16]: > 100 µM
- TGI [17]: 84.7 µM
- TGI [18]: > 100 µM
- TGI [19]: > 100 µM
- TGI [20]: > 100 µM
- TGI [21]: > 100 µM
- TGI [22]: > 100 µM
- TGI [23]: > 100 µM
- TGI [24]: > 100 µM
- TGI [25]: > 100 µM
- TGI [26]: > 100 µM
- TGI [27]: > 100 µM
- TGI [28]: > 100 µM
- TGI [29]: > 100 µM
- TGI [30]: > 100 µM
- TGI [31]: > 100 µM
- TGI [32]: > 100 µM
- TGI [33]: 89.3 µM
- TGI [34]: > 100 µM
- TGI [35]: > 100 µM
- TGI [36]: > 100 µM
- TGI [37]: > 100 µM
- TGI [38]: > 100 µM
- TGI [39]: > 100 µM
- TGI [40]: > 100 µM
- TGI [41]: > 100 µM
- TGI [42]: > 100 µM
- TGI [43]: > 100 µM
- TGI [44]: > 100 µM
- TGI [45]: > 100 µM
- TGI [46]: > 100 µM
- TGI [47]: > 100 µM
- TGI [48]: > 100 µM

SMILES: CCOC(=O)C(CCCNC(=O)OC(C)(C)C)N(Cc1ccc(OC)cc1OC)C(=O)CC(=O)CP(=O)(OCC)OCC (stereo not drawn)
- TGI [1]: > 100 µM
- TGI [2]: > 100 µM
- TGI [3]: > 100 µM
- TGI [4]: > 100 µM
- TGI [5]: > 100 µM
- TGI [6]: > 100 µM
- TGI [7]: > 100 µM
- TGI [49]: > 100 µM
- TGI [8]: > 100 µM
- TGI [9]: > 100 µM
- TGI [50]: > 100 µM
- TGI [10]: > 100 µM
- TGI [11]: > 100 µM
- TGI [12]: > 100 µM
- TGI [13]: > 100 µM
- TGI [51]: > 100 µM
- TGI [14]: > 100 µM
- TGI [52]: > 100 µM
- TGI [15]: > 100 µM
- TGI [16]: > 100 µM
- TGI [17]: > 100 µM
- TGI [18]: > 100 µM
- TGI [19]: > 100 µM
- TGI [20]: > 100 µM
- TGI [21]: > 100 µM
- TGI [22]: > 100 µM
- TGI [23]: > 100 µM
- TGI [24]: > 100 µM
- TGI [53]: > 100 µM
- TGI [25]: > 100 µM
- TGI [27]: > 100 µM
- TGI [28]: > 100 µM
- TGI [54]: > 100 µM
- TGI [55]: > 100 µM
- TGI [29]: > 100 µM
- TGI [30]: > 100 µM
- TGI [31]: > 100 µM
- TGI [32]: > 100 µM
- TGI [33]: > 100 µM
- TGI [34]: > 100 µM
- TGI [56]: > 100 µM
- TGI [36]: > 100 µM
- TGI [57]: > 100 µM
- TGI [58]: > 100 µM
- TGI [37]: > 100 µM
- TGI [38]: > 100 µM
- TGI [39]: > 100 µM
- TGI [40]: > 100 µM
- TGI [42]: > 100 µM
- TGI [43]: > 100 µM
- TGI [44]: > 100 µM
- TGI [45]: > 100 µM
- TGI [46]: > 100 µM
- TGI [47]: > 100 µM
- TGI [48]: > 100 µM

Reference: PubChem BioAssay (NCI)
